Experimental data: US20190111059A1, “COMPOSITIONS AND METHODS FOR TREATING AUTISM SPECTRUM DISORDER” (Marinus Pharmaceuticals, Inc., priority 2017, published 2019)
Entries after “also recorded” stand apart in the source; their conditions may differ. Where a name gives a salt, the structure may show the parent alone.

Key:
Type in all cases: in vivo, human
[1] = tested on: children with non-syndromic autism spectrum disorder (ASD) and language impairment; test: Randomized placebo-controlled trial: Autism Impact Measure (AIM); conditions: lower = less impact
Method: The Autism Impact Measure (“AIM”) is a 45-item parent-reported measure of the frequency and impact of core ASD symptoms during the past 2 weeks using two 5-point scales of increasing severity ranging from 1 to 5.51 The Frequency and Impact scores range 45-225. This two-arm double-blind randomized placebo-controlled parallel study with a 1:1 allocation was performed at Arkansas Children's Research Institute (Little Rock, Ark., USA) from 4 Jun. 2012 to 22 Nov. 2013. Parent and teacher questionnaires were requested at baseline and 6 and 12 weeks after starting treatment. Parents were asked to deliver baseline questionnaires to teachers or therapists. After the first visit, questionnaires were mailed to the parents and teachers at least 1 week prior to the target date of completion. Parents were asked to bring the completed teacher and parent 12-week questionnaires to the final assessment. Other questionnaires were returned in a preaddressed postage-paid envelope. The target dose of the intervention (INN: DL folinic acid calcium salt; USAN: leucovorin calcium) was 2 mg kg^−1 per day (maximum 50 mg per day) in two equally divided doses with half of the target dose given during the first 2 weeks. Dye-free, milk-product-free, vegetarian capsules were provided in three strengths (5, 10 and 25 mg) by Lee Silsby Compounding Pharmacy (Cleveland Heights, Ohio, USA). Certificate of analysis was provided for each capsule strength by an independent analytical service (Eagle Analytical Services, Houston, Tex., USA) for each batch of capsules produced. In all cases, potency was at least 99%. Secondary outcomes. Secondary outcome measures included the Ohio Autism Clinical Impression Scale (OACIS), Vineland Adaptive Behavior Scale 2nd Edition (VABS) Survey Interview Form and several questionnaires. Parents and teachers were asked to complete the Aberrant Behavior Checklist (ABC), Social Responsiveness Scale (SRS) and Behavioral Assessment System for Children 2nd Edition (BASC). Only parents were asked to complete the Autism Impact Measure (AIM) and Autism Symptoms Questionnaire (ASQ). Secondary outcome measures were analyzed using the mixed-model regression. Because of the large number of secondary outcomes, correction for multiple comparisons was conducted using the false discovery rate.

[2] = tested on: children with non-syndromic autism spectrum disorder (ASD) and language impairment; test: Randomized placebo-controlled trial: Aberrant Behavior Checklist (ABC), parent questionnaire; conditions: lower = less problems; for ABC Hyperactivity, estimated effect / ABC Inappropriate speech, estimated effect / ABC Irritability, estimated effect / ABC Lethargy, estimated effect / ABC Stereotyped behavior, estimated effect / ABC Total Score, estimated effect: vs placebo, mixed-model regression, calcium salt
Source text: The Aberrant Behavior Checklist (“ABC”) is a 58-item questionnaire that measures disruptive behaviors, including Irritability (15 items, range 0-45); Social Withdrawal (16 items, range 0-48); Stereotypy (7 items, range 0-21); Hyperactivity (16 items, range 0-48) and Inappropriate Speech (4 items, range 0-12). Each item is rated 0 to 3 with higher scores indicating greater severity. Multiple ASD clinical trials have used it and it has convergent and divergent validity. […] This two-arm double-blind randomized placebo-controlled parallel study with a 1:1 allocation was performed at Arkansas Children's Research Institute (Little Rock, Ark., USA) from 4 Jun. 2012 to 22 Nov. 2013. Parent and teacher questionnaires were requested at baseline and 6 and 12 weeks after starting treatment. Parents were asked to deliver baseline questionnaires to teachers or therapists. After the first visit, questionnaires were mailed to the parents and teachers at least 1 week prior to the target date of completion. Parents were asked to bring the completed teacher and parent 12-week questionnaires to the final assessment. Other questionnaires were returned in a preaddressed postage-paid envelope. The target dose of the intervention (INN: DL folinic acid calcium salt; USAN: leucovorin calcium) was 2 mg kg^−1 per day (maximum 50 mg per day) in two equally divided doses with half of the target dose given during the first 2 weeks. Dye-free, milk-product-free, vegetarian capsules were provided in three strengths (5, 10 and 25 mg) by Lee Silsby Compounding Pharmacy (Cleveland Heights, Ohio, USA). Certificate of analysis was provided for each capsule strength by an independent analytical service (Eagle Analytical Services, Houston, Tex., USA) for each batch of capsules produced. In all cases, potency was at least 99%. Secondary outcomes. Secondary outcome measures included the Ohio Autism Clinical Impression Scale (OACIS), Vineland Adaptive Behavior Scale 2nd Edition (VABS) Survey Interview Form and several questionnaires. Parents and teachers were asked to complete the Aberrant Behavior Checklist (ABC), Social Responsiveness Scale (SRS) and Behavioral Assessment System for Children 2nd Edition (BASC). Only parents were asked to complete the Autism Impact Measure (AIM) and Autism Symptoms Questionnaire (ASQ). Secondary outcome measures were analyzed using the mixed-model regression. Because of the large number of secondary outcomes, correction for multiple comparisons was conducted using the false discovery rate.

[3] = tested on: children with non-syndromic autism spectrum disorder (ASD) and language impairment; test: Randomized placebo-controlled trial: adverse effects monitoring
Source text: Adverse events were monitored every 3 weeks using a modification of the Dosage Record Treatment Emergent Symptom Scale. Adverse events were considered related to the treatment if they started or worsened following the start of the trial. If adverse events were persistent or severe, the parents were offered the option of halving the dose or discontinuing the intervention. The dose could only be reduced once and was never increased if reduced.
The total number of patients reporting each adverse event was compared across treatment groups using a Fisher exact test. Adverse events that were possibly, probably or definitely related to the treatments were analyzed.

[4] = vs placebo, mixed-model regression
[5] = folinic acid group n = 21, 12 weeks

Nc1nc2c(c(=O)[nH]1)N(C=O)C(CNc1ccc(C(=O)N[C@@H](CCC(=O)O)C(=O)O)cc1)CN2 (mixture of isomers) [Folinic acid, DL folinic acid calcium salt]
AIM Impact, 12-week assessment mean ([1]; 2 mg kg^−1 per day, 12 weeks, baseline 105): 87 Raw Scores
AIM Frequency, 12-week assessment mean ([1]; 2 mg kg^−1 per day, 12 weeks, baseline 135): 114 Raw Scores
AIM Frequency, estimated effect [1, 4]: −2.2 Raw Scores
AIM Impact, estimated effect [1, 4]: 3.4 Raw Scores
ABC Inappropriate speech, 12-week assessment mean ([2]; 2 mg kg^−1 per day, 12 weeks, baseline 5.2): 4.0 Raw Score
ABC Stereotyped behavior, 12-week assessment mean ([2]; 2 mg kg^−1 per day, 12 weeks, baseline 6.1): 3.7 Raw Score
ABC Lethargy, 12-week assessment mean ([2]; 2 mg kg^−1 per day, 12 weeks, baseline 13.1): 9.7 Raw Score
ABC Irritability, 12-week assessment mean ([2]; 2 mg kg^−1 per day, 12 weeks, baseline 13.4): 9.1 Raw Score
ABC Hyperactivity, 12-week assessment mean ([2]; 2 mg kg^−1 per day, 12 weeks, baseline 25.0): 22.1 Raw Score
ABC Total Score, 12-week assessment mean ([2]; 2 mg kg^−1 per day, 12 weeks, baseline 62.7): 48.5 Raw Score
ABC Hyperactivity, estimated effect [2]: −1.8 Raw Score
ABC Inappropriate speech, estimated effect [2]: −1.7 Raw Score
ABC Irritability, estimated effect [2]: −1.2 Raw Score
ABC Lethargy, estimated effect [2]: −1.4 Raw Score
ABC Stereotyped behavior, estimated effect [2]: −0.9 Raw Score
ABC Total Score, estimated effect [2]: −4.7 Raw Score
ABC Hyperactivity, estimated effect ([2]; listed as folinic acid): significantly improved
ABC Inappropriate speech, estimated effect ([2]; listed as folinic acid): significantly improved
ABC Irritability, estimated effect ([2]; listed as folinic acid): significantly improved
ABC Lethargy, estimated effect ([2]; listed as folinic acid): significantly improved
ABC Stereotyped behavior, estimated effect ([2]; listed as folinic acid): significantly improved
ABC Total Score, estimated effect ([2]; listed as folinic acid): significantly improved
Adverse effects, difference between treatment groups (folinic acid vs placebo) ([3]; 2 mg kg^−1 per day, 12 weeks, Fisher exact test, calcium salt): no significant difference; also recorded: no significant group differences
Aggression, incidence [3, 5]: (10%)
Any adverse effect, incidence [3, 5]: (57%)
Blurred vision, incidence [3, 5]: (0%)
Confusion, incidence [3, 5]: (5%)
Constipation, incidence [3, 5]: (10%)
Decreased appetite, incidence [3, 5]: (10%)
Decreased motor activity, incidence [3, 5]: (0%)
Depression, incidence [3, 5]: (5%)
Diarrhea, incidence [3, 5]: (5%)
Dizziness, incidence [3, 5]: (0%)
Drowsiness, incidence [3, 5]: (0%)
Dry mouth, excessive thirst, incidence [3, 5]: (14%)
Emotional lability, incidence [3, 5]: (5%)
Excitement or agitation, incidence [3, 5]: (29%)
Gastroesophageal reflux, incidence [3, 5]: (5%)
Headache, incidence [3, 5]: (10%)
Increased motor activity, incidence [3, 5]: (29%)
Increased salivation, incidence [3, 5]: (0%)
Increased tantrums, incidence [3, 5]: (5%)
Insomnia, incidence [3, 5]: (29%)
Involuntary movements, incidence [3, 5]: (10%)
Nasal congestion, incidence [3, 5]: (0%)
Nausea/vomiting, incidence [3, 5]: (0%)
Rash, incidence [3, 5]: (0%)
Restlessness, incidence [3, 5]: (14%)
Stiffness, incidence [3, 5]: (5%)
Sweating, incidence [3, 5]: (0%)
Tremors, incidence [3, 5]: (0%)
Weight gain, incidence [3, 5]: (10%)
Weight loss, incidence [3, 5]: (5%)
Serious adverse events ([3]; folinic acid group, 2 mg kg^−1 per day, 12 weeks): no serious adverse events
